{"source": "patent US10576145B2", "about": "“CD200 inhibitors and methods of use thereof” (REGENTS OF THE UNIVERSITY OF MINNESOTA, priority 2014, dated 2020)", "key": {"[1]": {"test_system": "naïve splenocytes exposed to GL261 cells", "experiment": "GL261 cells incubated with naive splenocytes in trans-well plate +/- CD200R antagonist: MDSC expansion and IFN-γ", "assay_type": "cell-based, mouse", "experimental": "FIGS. 17A-17B. CD200R antagonist blocks MDSC expansion and tumor suppressive effects. (FIG. 17A) Murine glioma GL261 was incubated with naïve splenocytes in a trans-well plate+/−CD200R antagonist and analyzed for MDSC expansion and cytokine production. (FIG. 17B) Naïve splenocytes were pulsed with purified CD200+/−CD200R antagonist and analyzed for MDSC expansion and arginase-I production. Error bars are ±SEM, statistical significance was determined by one-way ANOVA, post hoc analysis by Dunn's multiple comparison test, *p<0.05, ** p<0.001.\nTo determine the level of MDSC expansion when splenocytes were exposed to tumor cells, splenocytes were also harvested and purified as described above; 300,000 splenocytes were plated in the bottom of 24 well transwell plates containing a 0.4-micron filter. Following 24 hr incubation, 30,000 GL261 cells were plated on the transwell insert with and without the CD200R antagonist 6059. Total volume was 700 μl/well so that the insert was submerged in the media within the wells. Cells were incubated for 5 days, harvested, and stained with CD11b and GR-1 to determine MDSC levels. In another set of wells, OVA was added to the wells 24 hours after the splenocytes were plated. Following another 72 hr incubation, 3×10^5 purified CD8 T-cells isolated from an OT-I mouse and were added to the wells and incubated for an additional 72 hrs. […]"}, "CD200R": {"molecular_target": "T1, CD200R (Mus musculus, UniProt Q9ES57)", "T1 sequence (Q9ES57 26-326)": "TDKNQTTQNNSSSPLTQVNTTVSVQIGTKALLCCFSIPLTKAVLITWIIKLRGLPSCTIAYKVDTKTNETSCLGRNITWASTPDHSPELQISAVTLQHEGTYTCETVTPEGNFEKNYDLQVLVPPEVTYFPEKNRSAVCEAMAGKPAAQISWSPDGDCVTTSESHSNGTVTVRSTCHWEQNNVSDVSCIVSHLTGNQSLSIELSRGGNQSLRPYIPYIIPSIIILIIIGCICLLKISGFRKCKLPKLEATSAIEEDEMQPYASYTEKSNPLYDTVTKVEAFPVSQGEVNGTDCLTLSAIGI", "settings": "reportedly; cited from earlier work"}, "GL261 tumor bearing mice": {"test_system": "GL261 tumor bearing mice", "experiment": "OVA+Poly:ICLC vaccination of GL261 tumor bearing mice +/- CD200R antagonist: OVA-specific CD8 T cells and recall cytokines", "assay_type": "in vivo, C57BL/6 mice", "settings": "for SIINFEKL-specific CD8 T cells (OVA-specific T cell expansion): blood, flow cytometry", "description": "FIGS. 2A-2B. FIG. 2A) Vaccination scheme. Tumor bearing or non-tumor bearing mice were vaccinated on day 2 and 8 with an agonist (4012) or antagonist (6059) only, and on days 3-6 and 10 with OVA+Poly:ICLC+/−the competitive inhibitor 6059 (antagonist of a agonist). FIG. 2B) Mice were bled on day 10, whole blood was stained with an anti-CD8 and SI[[N]]INFEKL (SEQ ID NO: 11) specific detramer, lysed and analyzed by flow cytometry.\nFIGS. 3A-3B. Tumor bearing or non-tumor bearing mice were vaccinated on day 2 and 8 with an agonist or antagonist only, and on days 3-6 and 10 with OVA+Poly:ICLC+/−the competitive inhibitor 6059 (antagonist of a agonist). On day 10, were harvested and stimulated with OVA protein to measure a recall response via cytokine release. FIG. 3A) TNF alpha (PG/ML) levels from tumor bearing mice. FIG. 3B) INF gamma (PG/ML) levels in tumor bearing mice.\nFIGS. 12A-12C. […] Tumor and non-tumor bearing mice were vaccinated with OVA+Poly:ICLC+/−the CD200R antagonist 6059 and analyzed for FIG. 12A) SIINFEKL/Kb+CD8+ T cell expansion (‘SIINFEKL’ disclosed as SEQ ID NO: 11). FIG. 12B) Lymphocytes were harvested and stimulated with SIINFEKL peptide (SEQ ID NO: 11). Supernatants were analyzed for TNFα and IFNγ secretion. FIG. 12C) The antagonist 6059 was added to OVA+exosomes. Error bars indicate +/−SEM (n=4/group; *P<0.05; by t-test). FIGS. 12A-12C discloses ‘SIINFEKL’ disclosed as SEQ ID NO: 11.\nFIGS. 18A-18D. […] (FIG. 18A & FIG. 18B) Tumor bearing mice were vaccinated with OVA+Poly:ICLC+/−antagonist then analyzed for OVA-specific T cells and cytokine production following in vitro restimulation with OVA. Tumor bearing mice were vaccinated with saline (n=10), tumor lysate+CpG (n=10) or tumor lysate+CpG+antagonist 6059 (n=10). (FIG. 18C) Mice were imaged weekly for tumor growth and (FIG. 18D) followed for survival. Error bars are ±SEM, *p<0.05, ** p<0.001 was determined by one-way ANOVA, post hoc analysis by Dunn's multiple comparison test, log-rank analysis was used for survival. […]\nAnti-mouse CD8α-Pacific Blue (clone 53-6.7) was purchased from eBioscience. A SIINFEKL/K^b dextramer-PE (‘SIINFEKL’ disclosed as SEQ ID NO: 11) was used for detection of SIINFEKL/K^b-binding CD8 T-cells (Immunodex) (‘SIINFEKL’ disclosed as BEQ ID NO: 11). […] A 100 μl sample of whole blood was immediately analyzed for percentage of MDSCs ((Lineage-FITC (CD3, CD14, CD16, CD19, CD20, CD56) CD33-APC, HLA-DR-PerCp)) by flow cytometry. Sera CD200 levels were determined by ELISA (Sino Biological Inc.).\nLymph nodes were homogenized in RPMI media containing 10% FBS, penicillin/streptomycin (100 U/ml), and 0.1 mg/ml Normocin (Invivogen). […] Fifty microliters of supernatant was analyzed for IFN-γ using a flow cytometric bead array according to the manufacturer's protocol (BD Biosciences)."}}, "note": "Entries after “also recorded” stand apart in the source; their conditions may differ.", "data": [{"sequence": "NTIGDGGCY [Antagonist 6059]", "values": [{"measurement": "IFN-γ production of OT-I CD8 T-cells in response to OVA", "setting": "[1]; trans-well with GL261 cells", "result": "blocked both the expansion of MDSCs as well as the production of IFN-γ"}, {"measurement": "Expansion of CD11b+Gr1+ MDSC induced by GL261 cells", "setting": "[1]; trans-well, 5 days", "result": "blocked both the expansion of MDSCs"}, {"measurement": "Competition with CD200 for binding to CD200R", "setting": "CD200R", "result": "outcompetes the intact CD200 protein for binding to the CD200R"}, {"measurement": "Suppressive effects of the tumor environment (overall statement)", "setting": "GL261 tumor bearing mice; prime boost model, tumor-bearing mice", "result": "reversed the suppressive effects in tumor-bearing mice; also recorded: reverses the suppressive effects of the tumor environment; also recorded: blocks CD200 induced immune suppression"}, {"measurement": "SIINFEKL-specific CD8 T cells (OVA-specific T cell expansion)", "setting": "GL261 tumor bearing mice; tumor bearing mice, OVA+Poly:ICLC +/- antagonist", "result": "reversed tumor induced suppression; also recorded: increased numbers of SIINFEKL-specific CD8 T-cells; also recorded: reversed the suppressive effects of the tumor microenvironment"}, {"measurement": "SIINFEKL-specific CD8 T cells (OVA-specific T cell expansion)", "setting": "GL261 tumor bearing mice; tumor bearing mice, OVA+Poly:ICLC +/- antagonist, listed as CD200 antagonist", "result": "significantly enhanced the expansion of a SIINFEKL/CD8 T cell population"}, {"measurement": "TNFα and IFNγ production after restimulation of cervical lymph node lymphocytes (recall response)", "setting": "GL261 tumor bearing mice; tumor bearing mice, OVA+Poly:ICLC +/- antagonist, restimulation with OVA/SIINFEKL, 48 hrs", "result": "modulate/reverse glioma-induced suppression; also recorded: significantly enhanced TNFγ and IFNγ production; also recorded: reversed the suppressive effects of the tumor microenvironment"}]}]}
